Key:
redroot pigweed [1] = experiment: Test Example 5: herbicidal effect by foliage application, plastic box (Table 20, symbol N); format: in vivo, redroot pigweed (Amaranthus retroflexus); conditions: foliage application, 320 g/ha, three weeks after application
How it was run: (§1)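 Sow seeds spot-wise in sterilized diluvial soil; cover with ~1.5 cm soil. Grow 14 days in greenhouse, 25° C. to 30° C. Spray foliage with emulsion diluted to predetermined amount. Rate effect after 3 weeks.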

blackgrass [2] = experiment: Test Example 5: herbicidal effect by foliage application, plastic box (Table 20, symbol J); format: in vivo, blackgrass (Alopecurus myosuroides); conditions: foliage application, 320 g/ha, three weeks after application
How it was run: as §1

windgrass [3] = experiment: Test Example 5: herbicidal effect by foliage application, plastic box (Table 20, symbol L); format: in vivo, windgrass (Apera spica-venti); conditions: foliage application, 320 g/ha, three weeks after application
How it was run: as §1

barnyard grass [4] = experiment: Test Example 5: herbicidal effect by foliage application, plastic box (Table 20, symbol H); format: in vivo, barnyard grass (Echinochloa crus-galli); conditions: foliage application, 320 g/ha, three weeks after application
How it was run: as §1

redroot pigweed [5] = experiment: Test Example 4: herbicidal effect by soil treatment (Table 19, symbol N); format: in vivo, redroot pigweed (Amaranthus retroflexus); conditions: amount of applied herbicide 320 g/ha
How it was run: (§2)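 Soil-surface application: an emulsion agent diluted with water to the predetermined dose is sprayed uniformly over seeds lying under roughly 1.5 cm of sterilized diluvial soil. Boxes stay in a greenhouse at 25° C. to 30° C. Three weeks later, each species is graded on previously defined criteria.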

Italian ryegrass [6] = experiment: Test Example 5: herbicidal effect by foliage application, plastic box (Table 20, symbol K); format: in vivo, Italian ryegrass (Lolium multiflorum); conditions: foliage application, 320 g/ha, three weeks after application
How it was run: as §1

lambsquarters [7] = experiment: Test Example 4: herbicidal effect by soil treatment (Table 19, symbol O); format: in vivo, lambsquarters (Chenopodium album); conditions: amount of applied herbicide 320 g/ha
How it was run: as §2

velvetleaf [8] = experiment: Test Example 4: herbicidal effect by soil treatment (Table 19, symbol M); format: in vivo, velvetleaf (Abutilon theophrasti); conditions: amount of applied herbicide 320 g/ha
How it was run: as §2

false cleavers [9] = experiment: Test Example 5: herbicidal effect by foliage application, plastic box (Table 20, symbol Q); format: in vivo, false cleavers (Galium spurium); conditions: foliage application, 320 g/ha, three weeks after application
How it was run: as §1

blackgrass [10] = experiment: Test Example 4: herbicidal effect by soil treatment (Table 19, symbol J); format: in vivo, blackgrass (Alopecurus myosuroides); conditions: amount of applied herbicide 320 g/ha
How it was run: as §2

barnyard grass [11] = experiment: Test Example 3: herbicidal effect by foliage application, Wagner pot (Table 18, symbol H); format: in vivo, barnyard grass (Echinochloa crus-galli); conditions: 320 g/ha
How it was run: (§3)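 Plants were sown in alluvial soil held under 0.1–0.5 cm standing water and grown 14 days in a greenhouse at 25–30 °C. An emulsifiable formulation, water-diluted to the set dose, was then sprayed onto the foliage, and effects were scored three weeks later using previously defined criteria.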

persian speedwell [12] = experiment: Test Example 5: herbicidal effect by foliage application, plastic box (Table 20, symbol R); format: in vivo, Persian speedwell (Veronica persica); conditions: foliage application, 320 g/ha, three weeks after application
How it was run: as §1

Chinese sprangletop = experiment: Test Example 3: herbicidal effect by foliage application, Wagner pot (Table 18, symbol D); format: in vivo, chinese sprangletop (Leptochloa chinensis); conditions: 320 g/ha
How it was run: as §3

wild oat [13] = experiment: Test Example 4: herbicidal effect by soil treatment (Table 19, symbol I); format: in vivo, wild oat (Avena fatua); conditions: amount of applied herbicide 320 g/ha
How it was run: as §2

lambsquarters [14] = experiment: Test Example 5: herbicidal effect by foliage application, plastic box (Table 20, symbol O); format: in vivo, lambsquarters (Chenopodium album); conditions: foliage application, 320 g/ha, three weeks after application
How it was run: as §1

rice flat sedge = experiment: Test Example 3: herbicidal effect by foliage application, Wagner pot (Table 18, symbol E); format: in vivo, rice flat sedge (Cyperus iria); conditions: 320 g/ha
How it was run: as §3

persian speedwell [15] = experiment: Test Example 4: herbicidal effect by soil treatment (Table 19, symbol R); format: in vivo, Persian speedwell (Veronica persica); conditions: amount of applied herbicide 320 g/ha
How it was run: as §2

barnyard grass [16] = experiment: Test Example 4: herbicidal effect by soil treatment (Table 19, symbol H); format: in vivo, barnyard grass (Echinochloa crus-galli); conditions: amount of applied herbicide 320 g/ha
How it was run: as §2

green foxtail [17] = experiment: Test Example 5: herbicidal effect by foliage application, plastic box (Table 20, symbol G); format: in vivo, green foxtail (Setaria viridis); conditions: foliage application, 320 g/ha, three weeks after application
How it was run: as §1

green foxtail [18] = experiment: Test Example 4: herbicidal effect by soil treatment (Table 19, symbol G); format: in vivo, green foxtail (Setaria viridis); conditions: amount of applied herbicide 320 g/ha
How it was run: as §2

windgrass [19] = experiment: Test Example 4: herbicidal effect by soil treatment (Table 19, symbol L); format: in vivo, windgrass (Apera spica-venti); conditions: amount of applied herbicide 320 g/ha
How it was run: as §2

southern crabgrass [20] = experiment: Test Example 5: herbicidal effect by foliage application, plastic box (Table 20, symbol F); format: in vivo, southern crabgrass (Digitaria ciliaris); conditions: foliage application, 320 g/ha, three weeks after application
How it was run: as §1

chickweed [21] = experiment: Test Example 4: herbicidal effect by soil treatment (Table 19, symbol P); format: in vivo, common chickweed (Stellaria media); conditions: amount of applied herbicide 320 g/ha
How it was run: as §2

velvetleaf [22] = experiment: Test Example 5: herbicidal effect by foliage application, plastic box (Table 20, symbol M); format: in vivo, velvetleaf (Abutilon theophrasti); conditions: foliage application, 320 g/ha, three weeks after application
How it was run: as §1

Italian ryegrass [23] = experiment: Test Example 4: herbicidal effect by soil treatment (Table 19, symbol K); format: in vivo, Italian ryegrass (Lolium multiflorum); conditions: amount of applied herbicide 320 g/ha
How it was run: as §2

wild oat [24] = experiment: Test Example 5: herbicidal effect by foliage application, plastic box (Table 20, symbol I); format: in vivo, wild oat (Avena fatua); conditions: foliage application, 320 g/ha, three weeks after application
How it was run: as §1

false cleavers [25] = experiment: Test Example 4: herbicidal effect by soil treatment (Table 19, symbol Q); format: in vivo, false cleavers (Galium spurium); conditions: amount of applied herbicide 320 g/ha
How it was run: as §2

chickweed [26] = experiment: Test Example 5: herbicidal effect by foliage application, plastic box (Table 20, symbol P); format: in vivo, common chickweed (Stellaria media); conditions: foliage application, 320 g/ha, three weeks after application
How it was run: as §1

southern crabgrass [27] = experiment: Test Example 4: herbicidal effect by soil treatment (Table 19, symbol F); format: in vivo, southern crabgrass (Digitaria ciliaris); conditions: amount of applied herbicide 320 g/ha
How it was run: as §2

SMILES	N: redroot pigweed, herbicidal effect grade (redroot pigweed [1])	J: blackgrass, herbicidal effect grade (blackgrass [2])	L: windgrass, herbicidal effect grade (windgrass [3])	H: barnyard grass, herbicidal effect grade (barnyard grass [4])	N: redroot pigweed, herbicidal effect grade (redroot pigweed [5])	K: Italian ryegrass, herbicidal effect grade (Italian ryegrass [6])	O: lambsquarters, herbicidal effect grade (lambsquarters [7])	M: velvetleaf, herbicidal effect grade (velvetleaf [8])	Q: false cleavers, herbicidal effect grade (false cleavers [9])	J: blackgrass, herbicidal effect grade (blackgrass [10])	herbicidal effect on barnyard grass (H) (barnyard grass [11])	R: persian speedwell, herbicidal effect grade (persian speedwell [12])	herbicidal effect on Chinese sprangletop (D) (Chinese sprangletop)	I: wild oat, herbicidal effect grade (wild oat [13])	O: lambsquarters, herbicidal effect grade (lambsquarters [14])	herbicidal effect on rice flat sedge (E) (rice flat sedge)	R: persian speedwell, herbicidal effect grade (persian speedwell [15])	H: barnyard grass, herbicidal effect grade (barnyard grass [16])	G: green foxtail, herbicidal effect grade (green foxtail [17])	G: green foxtail, herbicidal effect grade (green foxtail [18])	also measured
COc1ccc2c(-c3c(O)c(C)nn(C)c3=O)c(-c3ccc(OC)c(OC)c3)sc2c1 [3-080]	0 (Herbicidal rate of 5% or less (almost no effect))	2 (Herbicidal rate of 20% or more and less than 40%)	0 (Herbicidal rate of 5% or less (almost no effect))	0 (Herbicidal rate of 5% or less (almost no effect))	0 (Herbicidal rate of 5% or less (almost no effect))	4 (Herbicidal rate of 70% or more and less than 90%)	0 (Herbicidal rate of 5% or less (almost no effect))	0 (Herbicidal rate of 5% or less (almost no effect))	0 (Herbicidal rate of 5% or less (almost no effect))	0 (Herbicidal rate of 5% or less (almost no effect))	1 (Herbicidal rate of 5% or more and less than 20%)	5 (Herbicidal rate of 90% or more (almost completely withered))	0 (Herbicidal rate of 5% or less (almost no effect))	0 (Herbicidal rate of 5% or less (almost no effect))	1 (Herbicidal rate of 5% or more and less than 20%)	4 (Herbicidal rate of 70% or more and less than 90%)	2 (Herbicidal rate of 20% or more and less than 40%)	0 (Herbicidal rate of 5% or less (almost no effect))	0 (Herbicidal rate of 5% or less (almost no effect))	0 (Herbicidal rate of 5% or less (almost no effect))	L: windgrass, herbicidal effect grade (windgrass [19]): 0 (Herbicidal rate of 5% or less (almost no effect)); F: southern crabgrass, herbicidal effect grade (southern crabgrass [20]): 0 (Herbicidal rate of 5% or less (almost no effect)); P: chickweed, herbicidal effect grade (chickweed [21]): 0 (Herbicidal rate of 5% or less (almost no effect)); M: velvetleaf, herbicidal effect grade (velvetleaf [22]): 1 (Herbicidal rate of 5% or more and less than 20%); K: Italian ryegrass, herbicidal effect grade (Italian ryegrass [23]): 0 (Herbicidal rate of 5% or less (almost no effect)); I: wild oat, herbicidal effect grade (wild oat [24]): 0 (Herbicidal rate of 5% or less (almost no effect)); Q: false cleavers, herbicidal effect grade (false cleavers [25]): 0 (Herbicidal rate of 5% or less (almost no effect)); P: chickweed, herbicidal effect grade (chickweed [26]): 5 (Herbicidal rate of 90% or more (almost completely withered)); F: southern crabgrass, herbicidal effect grade (southern crabgrass [27]): 0 (Herbicidal rate of 5% or less (almost no effect))
COc1ccc2c(-c3c(O)c(C)nn(C)c3=O)c(-c3ccc(F)cc3)sc2c1 [3-063]	4 (Herbicidal rate of 70% or more and less than 90%)	0 (Herbicidal rate of 5% or less (almost no effect))	2 (Herbicidal rate of 20% or more and less than 40%)	0 (Herbicidal rate of 5% or less (almost no effect))	3 (Herbicidal rate of 40% or more and less than 70%)	3 (Herbicidal rate of 40% or more and less than 70%)	5 (Herbicidal rate of 90% or more (almost completely withered))	2 (Herbicidal rate of 20% or more and less than 40%)	5 (Herbicidal rate of 90% or more (almost completely withered))	0 (Herbicidal rate of 5% or less (almost no effect))	0 (Herbicidal rate of 5% or less (almost no effect))	5 (Herbicidal rate of 90% or more (almost completely withered))	0 (Herbicidal rate of 5% or less (almost no effect))	1 (Herbicidal rate of 5% or more and less than 20%)	3 (Herbicidal rate of 40% or more and less than 70%)	5 (Herbicidal rate of 90% or more (almost completely withered))	5 (Herbicidal rate of 90% or more (almost completely withered))	0 (Herbicidal rate of 5% or less (almost no effect))	0 (Herbicidal rate of 5% or less (almost no effect))	0 (Herbicidal rate of 5% or less (almost no effect))	L: windgrass, herbicidal effect grade (windgrass [19]): 0 (Herbicidal rate of 5% or less (almost no effect)); F: southern crabgrass, herbicidal effect grade (southern crabgrass [20]): 0 (Herbicidal rate of 5% or less (almost no effect)); P: chickweed, herbicidal effect grade (chickweed [21]): 5 (Herbicidal rate of 90% or more (almost completely withered)); M: velvetleaf, herbicidal effect grade (velvetleaf [22]): 5 (Herbicidal rate of 90% or more (almost completely withered)); K: Italian ryegrass, herbicidal effect grade (Italian ryegrass [23]): 0 (Herbicidal rate of 5% or less (almost no effect)); I: wild oat, herbicidal effect grade (wild oat [24]): 2 (Herbicidal rate of 20% or more and less than 40%); Q: false cleavers, herbicidal effect grade (false cleavers [25]): 2 (Herbicidal rate of 20% or more and less than 40%); P: chickweed, herbicidal effect grade (chickweed [26]): 5 (Herbicidal rate of 90% or more (almost completely withered)); F: southern crabgrass, herbicidal effect grade (southern crabgrass [27]): 0 (Herbicidal rate of 5% or less (almost no effect))

Reference: patent US20230085307A1, “PYRIDAZINONE COMPOUND AND HERBICIDE” (NISSAN CHEMICAL CORPORATION, priority 2019, published 2023)
